# Source: PubChem BioAssay AID2060490 (Molecular Pharmacology Branch, DTP, NCI, 2025)
# Test system: 885512-296-R-J2-PDC complex spheroid viability
# Experiment: Anticancer human tumor 885512-296-R-J2-PDC patient-derived breast carcinoma cell line growth inhibition [GQUAD]
# Settings: for IC50: curve of first compound; for viability, T/C: stronger effect = lower value
# Procedure, shortened: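 Multi-cell-type spheroids of tumor cells with HUVEC and mesenchymal stem cells, treated with drug combinations. Concentrations descend in half-log steps from near clinical Cmax, or from 10 microM where Cmax is unknown; viability read-out.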
# [1] = second compound 0.0316 µM, first compound 0.0316 µM
# [2] = second compound 0.0316 µM, first compound 0.1 µM
# [3] = second compound 0.0316 µM, first compound 0.316 µM
# [4] = second compound 0.0316 µM, first compound 1 µM
# [5] = second compound 0.0316 µM, first compound 3.16 µM
# [6] = second compound 0.0316 µM, first compound 10 µM
# [7] = second compound 0.1 µM, first compound 0.0316 µM
# [8] = second compound 0.1 µM, first compound 0.1 µM
# [9] = second compound 0.1 µM, first compound 0.316 µM
# [10] = second compound 0.1 µM, first compound 1 µM
# [11] = second compound 0.1 µM, first compound 3.16 µM
# [12] = second compound 0.1 µM, first compound 10 µM
# [13] = second compound 0.316 µM, first compound 0.0316 µM
# [14] = second compound 0.316 µM, first compound 0.1 µM
# [15] = second compound 0.316 µM, first compound 0.316 µM
# [16] = second compound 0.316 µM, first compound 1 µM
# [17] = second compound 0.316 µM, first compound 3.16 µM
# [18] = second compound 0.316 µM, first compound 10 µM
# [19] = second compound 1 µM, first compound 0.0316 µM
# [20] = second compound 1 µM, first compound 0.1 µM
# [21] = second compound 1 µM, first compound 0.316 µM
# [22] = second compound 1 µM, first compound 1 µM
# [23] = second compound 1 µM, first compound 3.16 µM
# [24] = second compound 1 µM, first compound 10 µM
# [25] = second compound 3.16 µM, first compound 0.0316 µM
# [26] = second compound 3.16 µM, first compound 0.1 µM
# [27] = second compound 3.16 µM, first compound 0.316 µM
# [28] = second compound 3.16 µM, first compound 1 µM
# [29] = second compound 3.16 µM, first compound 3.16 µM
# [30] = second compound 3.16 µM, first compound 10 µM
# [31] = second compound 10 µM, first compound 0.0316 µM
# [32] = second compound 10 µM, first compound 0.1 µM
# [33] = second compound 10 µM, first compound 0.316 µM
# [34] = second compound 10 µM, first compound 1 µM
# [35] = second compound 10 µM, first compound 3.16 µM
# [36] = second compound 10 µM, first compound 10 µM
# 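Note: spheroids exposed to the compounds for one week.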
# 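Throughout, for viability, T/C: percent of tumor spheroid viability relative to DMSO vehicle control wells.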
structure (smiles),measurement,setting,value
O=C(c1cc(Cc2n[nH]c(=O)c3ccccc23)ccc1F)N1CCN(C(=O)C2CC2)CC1 + CN(C)c1ccc(Nc2c3ccc(NC(=O)CCN4CCCC4)cc3nc3cc(NC(=O)CCN4CCCC4)ccc23)cc1,IC50,second compound 0.0316 µM,7620 nM
same,IC50,second compound 0.1 µM,7900 nM
same,IC50,second compound 0.316 µM,7330 nM
same,IC50,second compound 1 µM,7310 nM
same,IC50,second compound 3.16 µM,5340 nM
same,IC50,second compound 10 µM,< 31.6 nM
same,"viability, T/C",[1],105%
same,"viability, T/C",[2],103%
same,"viability, T/C",[3],132%
same,"viability, T/C",[4],139%
same,"viability, T/C",[5],117%
same,"viability, T/C",[6],29.2%
same,"viability, T/C",[7],102%
same,"viability, T/C",[8],94.9%
same,"viability, T/C",[9],119%
same,"viability, T/C",[10],145%
same,"viability, T/C",[11],120%
same,"viability, T/C",[12],33%
same,"viability, T/C",[13],93.7%
same,"viability, T/C",[14],110%
same,"viability, T/C",[15],118%
same,"viability, T/C",[16],131%
same,"viability, T/C",[17],123%
same,"viability, T/C",[18],25.7%
same,"viability, T/C",[19],85.2%
same,"viability, T/C",[20],102%
same,"viability, T/C",[21],116%
same,"viability, T/C",[22],152%
same,"viability, T/C",[23],105%
same,"viability, T/C",[24],29.1%
same,"viability, T/C",[25],95%
same,"viability, T/C",[26],107%
same,"viability, T/C",[27],125%
same,"viability, T/C",[28],107%
same,"viability, T/C",[29],67.8%
same,"viability, T/C",[30],28.7%
same,"viability, T/C",[31],20.7%
same,"viability, T/C",[32],23.3%
same,"viability, T/C",[33],20.1%
same,"viability, T/C",[34],19.2%
same,"viability, T/C",[35],20.8%
same,"viability, T/C",[36],15.8%
COc1ncnc(C2CC2)c1-c1ncc2cnn(Cc3ccc(-c4nc(C(F)(F)F)cn4C(C)C)cc3)c2n1 + Cc1cnc(CNC(=O)c2c(=O)c3ccc(N4CCCN(C)CC4)nc3n3c2sc2ccccc23)cn1,IC50,second compound 0.0316 µM,> 10000 nM
same,IC50,second compound 0.1 µM,> 10000 nM
same,IC50,second compound 0.316 µM,< 31.6 nM
same,IC50,second compound 1 µM,< 31.6 nM
same,IC50,second compound 3.16 µM,< 31.6 nM
same,IC50,second compound 10 µM,< 31.6 nM
same,"viability, T/C",[1],94.7%
same,"viability, T/C",[2],76%
same,"viability, T/C",[3],76.9%
same,"viability, T/C",[4],78.2%
same,"viability, T/C",[5],80.6%
same,"viability, T/C",[6],77.7%
same,"viability, T/C",[7],62.5%
same,"viability, T/C",[8],52.4%
same,"viability, T/C",[9],54.4%
same,"viability, T/C",[10],51.4%
same,"viability, T/C",[11],61.5%
same,"viability, T/C",[12],58.8%
same,"viability, T/C",[13],22.1%
same,"viability, T/C",[14],24.6%
same,"viability, T/C",[15],24.9%
same,"viability, T/C",[16],29.5%
same,"viability, T/C",[17],27.3%
same,"viability, T/C",[18],22.5%
same,"viability, T/C",[19],27.8%
same,"viability, T/C",[20],35.9%
same,"viability, T/C",[21],29.4%
same,"viability, T/C",[22],20.9%
same,"viability, T/C",[23],32%
same,"viability, T/C",[24],29.5%
same,"viability, T/C",[25],23.5%
same,"viability, T/C",[26],29.2%
same,"viability, T/C",[27],26.2%
same,"viability, T/C",[28],29.4%
same,"viability, T/C",[29],32.7%
same,"viability, T/C",[30],29.4%
same,"viability, T/C",[31],0.13%
same,"viability, T/C",[32],0.18%
same,"viability, T/C",[33],0.34%
same,"viability, T/C",[34],0.18%
same,"viability, T/C",[35],1.03%
same,"viability, T/C",[36],0.25%
COc1cccc2c1C(=O)c1c(O)c3c(c(O)c1C2=O)CC(O)(C(=O)CO)CC3OC1CC(N)C(O)C(C)O1 (stereo unspecified) + Cc1[nH]c2ccc(F)cc2c1-c1nc2c3cccnc3c3ncccc3c2[nH]1,IC50,second compound 0.0316 µM,89.6 nM
same,IC50,second compound 0.1 µM,84.1 nM
same,IC50,second compound 0.316 µM,81.9 nM
same,IC50,second compound 1 µM,58 nM
same,IC50,second compound 3.16 µM,< 31.6 nM
same,IC50,second compound 10 µM,< 31.6 nM
same,"viability, T/C",[1],96.2%
same,"viability, T/C",[2],41.8%
same,"viability, T/C",[3],25.3%
same,"viability, T/C",[4],9.04%
same,"viability, T/C",[5],0.5%
same,"viability, T/C",[6],2.46%
same,"viability, T/C",[7],101%
same,"viability, T/C",[8],36.4%
same,"viability, T/C",[9],23.9%
same,"viability, T/C",[10],10.9%
same,"viability, T/C",[11],0.36%
same,"viability, T/C",[12],3.62%
same,"viability, T/C",[13],85.5%
same,"viability, T/C",[14],39.4%
same,"viability, T/C",[15],25.1%
same,"viability, T/C",[16],8.52%
same,"viability, T/C",[17],0.35%
same,"viability, T/C",[18],2.33%
same,"viability, T/C",[19],67.7%
same,"viability, T/C",[20],32%
same,"viability, T/C",[21],20%
same,"viability, T/C",[22],7.54%
same,"viability, T/C",[23],0.39%
same,"viability, T/C",[24],2.51%
same,"viability, T/C",[25],17.2%
same,"viability, T/C",[26],12.3%
same,"viability, T/C",[27],4.34%
same,"viability, T/C",[28],2.57%
same,"viability, T/C",[29],0.34%
same,"viability, T/C",[30],1.2%
same,"viability, T/C",[31],1.64%
same,"viability, T/C",[32],1.76%
same,"viability, T/C",[33],2.1%
same,"viability, T/C",[34],1.15%
same,"viability, T/C",[35],0.87%
same,"viability, T/C",[36],0.81%
